Data set [1] in a line: PBS stability assay at 37 °C via LC-MS/MS. It is filed as physicochemical. Particulars: for Prodrug stability / self-immolation in buffer, in words / PBS, 37 °C %rem. at 2h (Table S23): PBS; for half-life at 3 µM: phosphate-buffered saline (DPBS), pH 7.03, PBS; for half-life at 3 µM / PBS, 37 °C %rem. at 2h (Table S23): 37 °C.
Method: To address this, prodrug stability was further evaluated in human plasma at 37 °C using liquid chromatography–tandem mass spectrometry (LC-MS/MS). For direct comparison, a parallel screen was conducted in PBS under identical conditions (Table ). To prevent premature degradation prior to LC-MS/MS analysis, acetonitrile containing formic acid was used as a quenching solution to acidify and stabilize the prodrugs in vials. […] This limitation in detection, along with the need for a more uniform and broadly applicable assessment across all compounds, prompted us to monitor the formation of the parent oxime as an alternative readout.
Stability experiments in human plasma and PBS were performed via liquid chromatography-tandem mass spectrometry (LC-MS/MS) to determine and compare rate of cleavage of progesterone prodrugs as well as selected allopregnanolone prodrugs (3 µM) when incubated at 37 °C. All experiments were performed in duplicate and results are presented as the average of two experimental replicates.
The nature of data set [2]: Plasma stability assay at 37 °C via LC-MS/MS, human plasma.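 For all read-outs here: prodrugs at 3 µM incubated in human plasma at 37 °C, intact prodrug quantified by LC-MS/MS over time, values are means of duplicate runs.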 It counts as in vitro ADME. Particulars: for half-life at 3 µM: human, plasma.
Data set [3] can be described thus: Aqueous solubility by visual inspection in acetate buffer (pH 5). Particulars: for solubility: sodium acetate buffer, pH 5, aqueous buffer, thermodynamic from solid.
Method: For the solubility assessment, acetate buffer (pH 5) was selected as the media of choice to ensure prodrug stability during analysis.
High aqueous solubility was determined by visual inspection of 5 mg solid material in 0.5 mL
sodium acetate buffer solution. This media was selected to ensure stability of prodrugs during
dissolution in 50 mg/mL aqueous media.
Where [4] appears, read: 3 µM, LC-MS/MS, read-out: t1/2 in PBS at 37 °C (Tables S14-S17) (converted).
Setting [5] is: read-out: PBS, 37 °C t½ (Table S23) (converted).
[6] abbreviates: read-out: Plasma, 37 °C t½ (Table S23) (converted).
[7] abbreviates: LC-MS/MS, read-out: Half-life (t½) PBS 37°C (converted).
Where [8] appears, read: unit not given (h in Table S23), read-out: t1/2 of allopregnanolone prodrugs in PBS at 37 °C (Table S22) (converted).
Where [9] appears, read: LC-MS/MS, read-out: Half-life (t½) Plasma 37°C (converted).
[10] abbreviates: unit not given (h in Table S23), read-out: t1/2 of allopregnanolone prodrugs in human plasma at 37 °C (Table S21) (converted).

Structures are written as SMILES. A value given as a limit tells only on which side of the number the result lay.

For `C/C(=N\OC(=O)N(C)[C@H](C)[C@@H]1CCCN1)[C@H]1CC[C@H]2[C@@H]3CCC4=CC(=O)CC[C@]4(C)[C@H]3CC[C@]12C.O=C(O)C(F)(F)F` [20p], the “Prodrug stability / self-immolation in buffer, in words” value in data set [1] is reported as “unstable compound”. Moreover, in data set [1] (setting [4]), the half-life at 3 µM was 0.61 h. Also, in data set [2] (3 µM, LC-MS/MS), the “t1/2 in human plasma at 37 °C (Tables S10-S13, S18)” value is “unstable during”. Further, the “Stability in aqueous media during solubility assessment, in words” value in data set [3] (aqueous media (acetate buffer)) is given as “poor stability”.
Usually solubility stands for the dissolved amount per volume that the medium holds. A low value points to a poorly soluble substance. Turning to `CNC1(CN(C)C(=O)O/N=C(\C)[C@H]2CC[C@H]3[C@@H]4CCC5=CC(=O)CC[C@]5(C)[C@H]4CC[C@]23C)CC1` [20s], the “Prodrug stability / self-immolation in buffer, in words” value in data set [1] is recorded as “complete inhibition of cyclization”. Also, the “PBS, 37 °C %rem. at 2h (Table S23)” value in data set [1] is 93%. The half-life at 3 µM in data set [1] (setting [4]) was 18.5 h; in data set [1] (setting [5]), 18.5 h; in data set [2] (3 µM, LC-MS/MS, read-out: t1/2 in human plasma at 37 °C (Tables S10-S13, S18) (converted)), greater than 24 h; in data set [2] (setting [6]), greater than 24 h. Also, the “Plasma, 37 °C %rem. at 2h (Table S23)” value in data set [2] is reported as “stable”. The “Half-life (t½) Plasma 37°C” value in data set [2] (LC-MS/MS) was “stable”. In data set [3], this compound showed a solubility greater than 10000 µg/mL.
As to `CNCCN(C)C(=O)O/N=C(\C)[C@H]1CC[C@H]2[C@@H]3CCC4C[C@H](O)CC[C@]4(C)[C@H]3CC[C@]12C.O=C(O)C(F)(F)F` (some centres unmarked) [21a], the “PBS, 37 °C %rem. at 2h (Table S23)” value in data set [1] came to 88%. For the same compound, the half-life at 3 µM in data set [1] (setting [7]) is 9.51 h; in data set [1] (setting [5]) it was 12.2 h; in data set [1] (setting [8]) it was 12.2 h; in data set [2] (setting [9]), 1.27 h; in data set [2] (setting [6]), 0.59 h; in data set [2] (setting [10]), 0.59 h. Moreover, the “Plasma, 37 °C %rem. at 2h (Table S23)” value in data set [2] was 13%. In data set [3], the solubility is greater than 5000 µg/mL.
Turning to `CNCCN(C(=O)O/N=C(\C)[C@H]1CC[C@H]2[C@@H]3CCC4C[C@H](O)CC[C@]4(C)[C@H]3CC[C@]12C)C1CC1.O=C(O)C(F)(F)F` (some centres unmarked) [21b], in data set [1], the “PBS, 37 °C %rem. at 2h (Table S23)” value worked out at 73%. For the same compound, the half-life at 3 µM in data set [1] (setting [7]) was 4.08 h; in data set [1] (setting [5]), 4.08 h; in data set [1] (setting [8]), 4.08 h; in data set [2] (setting [9]) it was 0.73 h; in data set [2] (setting [6]), 0.73 h; in data set [2] (setting [10]), 0.73 h. Besides, the “Plasma, 37 °C %rem. at 2h (Table S23)” value in data set [2] came to 16%. Also, in data set [3], the solubility is greater than 5000 µg/mL.
In the case of `CNCCN(C(=O)O/N=C(\C)[C@H]1CC[C@H]2[C@@H]3CCC4C[C@H](O)CC[C@]4(C)[C@H]3CC[C@]12C)C(C)C.O=C(O)C(F)(F)F` (some centres unmarked) [21c], the “PBS, 37 °C %rem. at 2h (Table S23)” value in data set [1] amounted to 68%. Moreover, the half-life at 3 µM in data set [1] (setting [7]) is 3.78 h; in data set [1] (setting [5]), 3.78 h; in data set [1] (setting [8]) it was 3.78 h; in data set [2] (setting [9]), 0.51 h; in data set [2] (setting [6]) it was 0.76 h; in data set [2] (setting [10]), 0.51 h. The “Plasma, 37 °C %rem. at 2h (Table S23)” value in data set [2] stood at 16%. Besides, the solubility in data set [3] was greater than 5000 µg/mL.
In the case of `CNCCN(C(=O)O/N=C(\C)[C@H]1CC[C@H]2[C@@H]3CCC4C[C@H](O)CC[C@]4(C)[C@H]3CC[C@]12C)C1CCC1.O=C(O)C(F)(F)F` (some centres unmarked) [21d], the “PBS, 37 °C %rem. at 2h (Table S23)” value in data set [1] is 38%. The half-life at 3 µM in data set [1] (setting [7]) is 1.69 h; in data set [1] (setting [5]) it was 1.69 h; in data set [1] (setting [8]), 1.69 h; in data set [2] (setting [9]) it was 0.76 h; in data set [2] (setting [6]), 0.76 h; in data set [2] (setting [10]) it was 0.76 h. Also, the “Plasma, 37 °C %rem. at 2h (Table S23)” value in data set [2] came to 16%. The solubility in data set [3] was greater than 5000 µg/mL.
In the case of `CNCCN(CCn1ccnc1)C(=O)O/N=C(\C)[C@H]1CC[C@H]2[C@@H]3CCC4C[C@H](O)CC[C@]4(C)[C@H]3CC[C@]12C` (some centres unmarked) [21k], in data set [1], the “PBS, 37 °C %rem. at 2h (Table S23)” value was determined as 62%. The half-life at 3 µM in data set [1] (setting [5]) is 4.12 h; in data set [1] (setting [8]), 4.12 h; in data set [2] (setting [6]), 0.81 h; in data set [2] (setting [10]), 0.81 h. The “Plasma, 37 °C %rem. at 2h (Table S23)” value in data set [2] was 14%. The compound further had a solubility in data set [3] greater than 5000 µg/mL.

Source of the values: PMC12516379, “Rotamer-Controlled Self-Immolative Linkers Enable Tunable Release of Neurosteroid Oxime Prodrugs” (ACS Medicinal Chemistry Letters, 2025).
